Values quoted from earlier work in patent US20080103154A1, “3, 4-dihydro-2(IH)-quinolinone and 2(1H)-quinolinone derivatives” (Concert Pharmaceuticals Inc., priority 2006, published 2008).

Legend:
5-HT2A = 5-HT2A (Homo sapiens, UniProt P28223); conditions: transfected cell lines expressing rat and human receptors
H1 receptors = H1 receptors (Homo sapiens, UniProt P35367); conditions: transfected cell lines expressing rat and human receptors
5-HT1A = molecular target: T1, 5-HT1A (Homo sapiens, UniProt P08908); conditions: transfected cell lines expressing rat and human receptors
T1 sequence (P08908 1-422): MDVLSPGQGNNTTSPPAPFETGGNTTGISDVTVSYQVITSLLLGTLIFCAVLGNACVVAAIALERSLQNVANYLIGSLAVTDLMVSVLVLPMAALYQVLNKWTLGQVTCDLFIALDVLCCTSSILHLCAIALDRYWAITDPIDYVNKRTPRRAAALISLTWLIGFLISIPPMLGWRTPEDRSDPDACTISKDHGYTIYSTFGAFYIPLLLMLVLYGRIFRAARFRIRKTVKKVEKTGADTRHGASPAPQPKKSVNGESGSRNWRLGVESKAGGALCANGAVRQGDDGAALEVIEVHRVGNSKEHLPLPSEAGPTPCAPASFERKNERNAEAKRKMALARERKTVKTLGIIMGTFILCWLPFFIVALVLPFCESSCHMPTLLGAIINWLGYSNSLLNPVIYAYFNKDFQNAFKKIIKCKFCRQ

5-HT2C = molecular target: T2, 5-HT2C (Homo sapiens, UniProt P28335); conditions: transfected cell lines expressing rat and human receptors
T2 sequence (P28335 33-458): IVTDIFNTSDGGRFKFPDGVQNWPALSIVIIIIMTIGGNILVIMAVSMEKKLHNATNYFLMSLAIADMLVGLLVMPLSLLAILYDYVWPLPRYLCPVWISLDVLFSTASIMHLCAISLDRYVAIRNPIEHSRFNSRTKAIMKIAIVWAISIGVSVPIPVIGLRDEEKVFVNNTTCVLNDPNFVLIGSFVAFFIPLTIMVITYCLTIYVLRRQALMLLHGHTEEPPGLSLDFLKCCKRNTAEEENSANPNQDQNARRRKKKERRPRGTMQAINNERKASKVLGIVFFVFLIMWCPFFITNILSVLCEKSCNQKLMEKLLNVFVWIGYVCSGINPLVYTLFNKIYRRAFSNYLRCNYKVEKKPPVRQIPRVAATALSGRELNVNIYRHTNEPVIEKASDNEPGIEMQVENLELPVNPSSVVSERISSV

α1 = conditions: transfected cell lines expressing rat and human receptors
[1] = not given; remark: listed apart in the source

H1 receptors, sequence (P35367 whole entry): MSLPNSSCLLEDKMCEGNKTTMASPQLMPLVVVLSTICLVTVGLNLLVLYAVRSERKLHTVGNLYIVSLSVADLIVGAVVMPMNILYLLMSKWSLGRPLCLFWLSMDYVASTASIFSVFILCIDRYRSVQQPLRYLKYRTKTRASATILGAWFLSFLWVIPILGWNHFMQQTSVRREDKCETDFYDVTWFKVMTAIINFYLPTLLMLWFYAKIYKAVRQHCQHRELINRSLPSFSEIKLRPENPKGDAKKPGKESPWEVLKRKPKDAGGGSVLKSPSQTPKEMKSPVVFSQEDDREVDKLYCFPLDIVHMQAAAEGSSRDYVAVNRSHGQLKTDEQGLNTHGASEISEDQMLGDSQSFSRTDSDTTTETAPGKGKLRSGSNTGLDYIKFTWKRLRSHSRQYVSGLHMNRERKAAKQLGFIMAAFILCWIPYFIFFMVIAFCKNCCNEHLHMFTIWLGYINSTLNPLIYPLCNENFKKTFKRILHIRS
5-HT2A, sequence (P28223 whole entry): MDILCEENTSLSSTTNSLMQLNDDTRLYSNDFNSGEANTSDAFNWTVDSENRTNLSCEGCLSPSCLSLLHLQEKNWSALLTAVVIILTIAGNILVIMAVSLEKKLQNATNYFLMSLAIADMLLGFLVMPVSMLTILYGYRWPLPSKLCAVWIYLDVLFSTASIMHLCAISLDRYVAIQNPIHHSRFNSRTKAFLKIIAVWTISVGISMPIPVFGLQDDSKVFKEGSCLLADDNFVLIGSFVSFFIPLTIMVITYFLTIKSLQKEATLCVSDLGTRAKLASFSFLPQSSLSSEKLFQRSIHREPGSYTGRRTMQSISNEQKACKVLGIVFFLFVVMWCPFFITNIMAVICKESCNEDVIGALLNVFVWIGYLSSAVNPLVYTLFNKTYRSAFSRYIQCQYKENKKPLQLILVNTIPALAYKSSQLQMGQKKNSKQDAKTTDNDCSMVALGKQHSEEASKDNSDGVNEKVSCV

Structure (SMILES) | affinity binding to 5-HT2A (5-HT2A) | affinity to H1 receptors (H1 receptors) | affinity binding to 5-HT1A (5-HT1A) | affinity to 5-HT2C (5-HT2C) | metabolism (humans) | absorption (oral administration in humans) | absolute oral bioavailability (oral formulation, humans) [%] | affinity to α1 (α1) | share of activity accounted for by metabolite ([1]; humans) [%] | potency relative to aripiprazole ([1]; metabolite of aripiprazole)
O=C1CCc2ccc(OCCCCN3CCN(c4cccc(Cl)c4Cl)CC3)cc2N1 [Aripiprazole] | high affinity | moderate affinity | high affinity | moderate affinity | extensively metabolized | well absorbed | 87 | moderate affinity | – | –
O=c1ccc2ccc(OCCCCN3CCN(c4cccc(Cl)c4Cl)CC3)cc2[nH]1 [dehydroaripiprazole] | – | – | – | – | – | – | – | – | 20 | equipotent with aripiprazole
